Test results published in patent US6720423B2, “Dihydrobenzofuran and dihydrobenzothiophene 2,4-pentadienoic acid derivatives having selective activity for retinoid X (RXR) receptors” (Allergan, Inc., priority 2002, dated 2004).

Key:
RXRα = biological target: T1, RXRα (Homo sapiens, UniProt P19793); assay: receptor transactivation assay, RXRα; type: cell-based; details: first entry of cell, read-out: RXR Trans. EC50 (nM) α
T1 construct: the only RXRα plasmid printed
T1 sequence (P19793 227-462 limits assumed): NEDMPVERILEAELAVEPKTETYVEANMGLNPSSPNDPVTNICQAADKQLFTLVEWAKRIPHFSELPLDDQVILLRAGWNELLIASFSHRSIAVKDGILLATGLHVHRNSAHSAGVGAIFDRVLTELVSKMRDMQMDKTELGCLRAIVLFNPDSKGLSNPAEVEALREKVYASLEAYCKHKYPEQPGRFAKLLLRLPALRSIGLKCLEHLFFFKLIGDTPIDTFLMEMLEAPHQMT
Source text: (§1) A holoreceptor transactivation assay and a ligand binding assay which measure the antagonist/agonist like activity of the compounds of the invention, or their ability to bind to the several retinoid receptor subtypes, respectively, are described in published PCT Application No. WO WO93/11755 (particularly on pages 30-33 and 37-41) published on Jun. 24, 1993, the specification of which is also incorporated herein by reference. A detailed experimental procedure for holoreceptor transactivations has been described by Heyman et al. Cell 68, 397-406, (1992); Allegretto et al. J. Biol. Chem. 268, 26625-26633, and Mangelsdorf et al. The Retinoids: Biology, Chemistry and Medicine, pp 319-349, Raven Press Ltd., New York, which are expressly incorporated herein by reference. The results obtained in this assay are expressed in EC50 numbers, as they are also in the chimeric receptor transactivation assay. The results of ligand binding assay are expressed in Kd numbers. (See Cheng et al. Biochemical Pharmacology Vol. 22 pp 3099-3108, expressly incorporated herein by reference.)

RARα = biological target: T2, RARα (Homo sapiens, UniProt P10276); assay: ligand binding assay, RARα; details: second entry of cell, read-out: RAR Bind. Ki (nM) α
T2 sequence (P10276 1-462): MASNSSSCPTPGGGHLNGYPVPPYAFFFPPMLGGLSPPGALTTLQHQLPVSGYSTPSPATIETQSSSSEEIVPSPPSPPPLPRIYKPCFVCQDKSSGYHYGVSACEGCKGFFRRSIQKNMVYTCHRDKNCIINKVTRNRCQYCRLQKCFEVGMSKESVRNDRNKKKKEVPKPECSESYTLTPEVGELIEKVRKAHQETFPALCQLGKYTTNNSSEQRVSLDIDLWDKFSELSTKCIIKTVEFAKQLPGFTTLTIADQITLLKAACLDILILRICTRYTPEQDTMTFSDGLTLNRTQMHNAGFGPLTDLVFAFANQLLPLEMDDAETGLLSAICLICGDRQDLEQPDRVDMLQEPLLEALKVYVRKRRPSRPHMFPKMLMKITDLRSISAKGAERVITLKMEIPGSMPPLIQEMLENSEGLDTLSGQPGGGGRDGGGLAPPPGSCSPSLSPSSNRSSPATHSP
Source text: as §1

RARγ = biological target: T3, RARγ (Homo sapiens, UniProt P13631); assay: ligand binding assay, RARγ; details: second entry of cell, read-out: RAR Bind. Ki (nM) γ
T3 sequence (P13631 1-454): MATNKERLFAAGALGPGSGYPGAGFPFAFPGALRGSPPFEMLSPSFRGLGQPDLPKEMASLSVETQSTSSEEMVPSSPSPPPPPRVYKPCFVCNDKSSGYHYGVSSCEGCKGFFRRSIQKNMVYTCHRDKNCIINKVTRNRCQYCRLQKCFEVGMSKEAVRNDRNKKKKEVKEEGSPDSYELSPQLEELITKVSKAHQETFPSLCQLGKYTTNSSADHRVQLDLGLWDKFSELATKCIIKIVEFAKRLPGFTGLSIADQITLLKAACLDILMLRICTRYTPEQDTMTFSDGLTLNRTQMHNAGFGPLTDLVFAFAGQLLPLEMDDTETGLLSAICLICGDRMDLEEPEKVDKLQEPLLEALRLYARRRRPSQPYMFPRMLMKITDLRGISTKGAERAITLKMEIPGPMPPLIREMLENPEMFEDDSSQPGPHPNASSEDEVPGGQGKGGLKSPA
Source text: as §1

RXRγ = biological target: T4, RXRγ (UniProt P28705); assay: ligand binding assay, RXRγ; design: other: RXRγ; last entry of cell; details: last entry of cell, read-out: RXR Bind Ki (nM) γ
T4 sequence (P28705 1-463): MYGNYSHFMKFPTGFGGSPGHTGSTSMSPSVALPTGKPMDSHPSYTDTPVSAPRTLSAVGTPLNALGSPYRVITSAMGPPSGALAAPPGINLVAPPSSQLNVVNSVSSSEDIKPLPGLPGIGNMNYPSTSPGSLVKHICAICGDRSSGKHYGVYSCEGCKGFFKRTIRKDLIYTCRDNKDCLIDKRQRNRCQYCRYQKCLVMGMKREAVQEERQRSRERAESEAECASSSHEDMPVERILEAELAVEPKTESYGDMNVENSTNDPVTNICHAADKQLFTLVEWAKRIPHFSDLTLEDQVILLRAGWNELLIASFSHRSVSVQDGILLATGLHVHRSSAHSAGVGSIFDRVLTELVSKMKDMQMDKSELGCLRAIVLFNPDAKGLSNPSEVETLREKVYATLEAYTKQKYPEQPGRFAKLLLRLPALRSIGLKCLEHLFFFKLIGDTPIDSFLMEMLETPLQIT
Source text: as §1

EC50 (RXRα) | Ki (RARα) | Ki (RARγ) | Ki (RXRγ) | Structure (SMILES)
609 nM | > 10000 nM | > 10000 nM | 602 nM | CC(/C=C/[C@@H]1C[C@@H]1c1ccc2c(c1)C(C)(C)CO2)=C\C(=O)O [Compound 36, (E)-3-{(E)-2-F[(1S,2S)-2-(3,3-Dimethyl-2,3-dihydro-benzofuran-5-yl)-cyclopropyl]-vinyl}-but-2-enoic acid]
1950 nM | > 10000 nM | > 10000 nM | 283 nM | CCCCC(O)CCc1cc([C@@]2(C)C[C@H]2/C=C/C(C)=C/C(=O)O)cc2c1OCC2(C)C (stereo partly drawn) [Compound 38, (E)-3-((E)-2-{(1S,2S)-2-[7-(3-Hydroxy-heptyl)-3,3-dimethyl-2,3-dihydro-benzofuran-5-yl]-2-methyl-cyclopropyl}-vinyl)-but-2-enoic acid]
330 nM | 11000 nM | > 10000 nM | 70 nM | CCCCC(=O)CCc1cc([C@@]2(C)C[C@H]2/C=C/C(C)=C/C(=O)O)cc2c1OCC2(C)C [Compound 40]
